According to patent US11420947B2, “(S)-n-hydroxy-2-(2-(4-methoxyphenyl)butanamido)thiazole-5-carboxamide and pharmaceutically acceptable salts thereof” (TRANSLATIONAL DRUG DEVELOPMENT, LLC, priority 2018, dated 2022):

Tests used:
CT26 = assay: CellTiter-Glo cell viability assay; format: cell-based, Murine; settings: Mus musculus; CT26, MURINE COLON, Colon, 72 hours
Experimental: (§1) Cell viability in the presence of varying concentrations of the above listed compounds at different time points was used to assess cytotoxicity and the effect of the compounds on cell proliferation.
(§2) Cell viability was measured by the CellTiter-Glo® cell viability assay from Promega (Madison, Wis.). The CellTiter-Glo® Luminescent Cell Viability Assay is a homogeneous method to determine the number of viable cells in culture based on quantitation of the ATP present, which signals the presence of metabolically active cells. Following treatment, CellTiter-Glo® is added to treatment wells and incubated at 37° C. luminescence values were measured at using a Molecular Devices Spectramax microplate reader
(§3) Cells were grown to 70% confluency, trypsinized, counted, and seeded in 96 well flat-bottom plates at a final concentration of 2.5×10^3-5×10^3 cells/well (Day 0). Cells were allowed to incubate in growth media for 24 hours. Treatment with the test agents or standard agents began on Day 1 and continued for 72 hours. At the 72-hour timepoint, treatment containing media was removed. Viable cell numbers are quantified by the CellTiter-Glo® cell viability assay as described above. Results from these studies were used to calculate an IC50 value (concentration of drug that inhibits cell growth by 50 percent of control) for each compound.
(§4) For single agent and combination studies, data from each experiment was collected and expressed as % Cell Growth using the following calculation: % Cell Growth=(ftest/fvehicle)×100
(§5) Where test is the fluorescence of the tested sample, and fvehicle is the fluorescence of the vehicle in which the drug is dissolved. Dose response graphs and IC50 values were generated using Prism 6 software (GraphPad) using the following equation: Y=(Top-Bottom)/(1+10^((logIC^50^-X)-HillSlope))

MC38 = assay: CellTiter-Glo cell viability assay; format: cell-based, Murine; settings: Mus musculus, MC-38; MC38, MURINE COLON, Colon, 72 hours
Experimental: as §1, §2, §3, §4, §5

4T1 = assay: CellTiter-Glo cell viability assay; format: cell-based, Murine; settings: Mus musculus; 4T1, BREAST, Murine Breast Tumor, 72 hours
Experimental: as §1, §2, §3, §4, §5

L1210 = assay: CellTiter-Glo cell viability assay; format: cell-based, Murine; settings: Mus musculus; L1210, HEMATOPIETIC, Murine Leukemia, 72 hours
Experimental: as §1, §2, §3, §4, §5

GL261 = assay: CellTiter-Glo cell viability assay; format: cell-based, Murine; settings: Mus musculus; GL261, MURINE BRAIN, Murine Glioma, 72 hours
Experimental: as §1, §2, §3, §4, §5

MCF7 = assay: CellTiter-Glo cell viability assay; format: cell-based; settings: Homo sapiens; MCF7, BREAST, ER + BCC, 72 hours
Experimental: as §1, §2, §3, §4, §5

A427 = assay: CellTiter-Glo cell viability assay; format: cell-based; settings: Homo sapiens, A-427; A427, LUNG, Carcinoma, 72 hours
Experimental: as §1, §2, §3, §4, §5

Hs695T = assay: CellTiter-Glo cell viability assay; format: cell-based; settings: Homo sapiens, Hs 695T; Hs695T, MELANOMA, LN Met, 72 hours
Experimental: as §1, §2, §3, §4, §5

H1650 = assay: CellTiter-Glo cell viability assay; format: cell-based; settings: Homo sapiens, NCI-H1650; H1650, LUNG, NSCLC, 72 hours
Experimental: as §1, §2, §3, §4, §5

NCI-H226 = assay: CellTiter-Glo cell viability assay; format: cell-based; settings: Homo sapiens; NCI-H226, LUNG, Mesothelioma, 72 hours
Experimental: as §1, §2, §3, §4, §5

Capan-2 = assay: CellTiter-Glo cell viability assay; format: cell-based; settings: Homo sapiens; Capan-2, PANCREAS, Pancreatic, 72 hours
Experimental: as §1, §2, §3, §4, §5

OVCAR-8 = assay: CellTiter-Glo cell viability assay; format: cell-based, Human; settings: OVCAR-8, OVARIAN, Human Ovarian Carcinoma, 72 hours
Experimental: as §1, §2, §3, §4, §5

A2780 = assay: CellTiter-Glo cell viability assay; format: cell-based, Human; settings: A2780, OVARIAN, Human Ovarian, 72 hours
Experimental: as §1, §2, §3, §4, §5

SCCOHT-1 = assay: CellTiter-Glo cell viability assay; format: cell-based, Human; settings: SCCOHT-1, OVARIAN, Human Small Cell Carcinoma of the Ovary, 72 hours
Experimental: as §1, §2, §3, §4, §5

BIN-67 = assay: CellTiter-Glo cell viability assay; format: cell-based, Human; settings: BIN-67, OVARIAN, Human Small Cell Carcinoma of the Ovary, 72 hours
Experimental: as §1, §2, §3, §4, §5

IGROV-1 = assay: CellTiter-Glo cell viability assay; format: cell-based, Human; settings: IGROV-1, OVARIAN, Human Ovarian Adenocarcinoma, 72 hours
Experimental: as §1, §2, §3, §4, §5

COV434 = assay: CellTiter-Glo cell viability assay; format: cell-based, Human; settings: COV434, OVARIAN, Human Ovarian Granulosa, 72 hours
Experimental: as §1, §2, §3, §4, §5

A2780cp = assay: CellTiter-Glo cell viability assay; format: cell-based, Human; settings: A2780C/P; A2780cp, OVARIAN, Platinum res-Human Ovarian, 72 hours
Experimental: as §1, §2, §3, §4, §5

SKOV-3 = assay: CellTiter-Glo cell viability assay; format: cell-based, Human; settings: SK-OV-3; SKOV-3, OVARIAN, Human Ovarian Carcinoma, 72 hours
Experimental: as §1, §2, §3, §4, §5

OVCAR-3 = assay: CellTiter-Glo cell viability assay; format: cell-based, Human; settings: OVCAR-3, OVARIAN, Human Ovarian Carcinoma, 72 hours
Experimental: as §1, §2, §3, §4, §5

[1] = Pharmacokinetics studies in mice; format: in vivo; settings: PO-5 mg/kg
Excerpt: Volume of distribution is one of the most important pharmacokinetic properties of a drug candidate and for an anticancer drug can result in increased drug distribution to the tumor.

Q: With CC[C@@H](C(=O)Nc1ncc(C(=O)NO)s1)c1ccc(OC)cc1 [#1b, (R)—N-hydroxy-2-(2-(4-methoxyphenyl)butanamido)thiazole-5-carboxamide] as the compound, how does the IC50 (CT26) read?
A: 3210 nM

Q: And the IC50 (MC38)?
A: 493 nM

Q: What about the IC50 (4T1) of the same compound?
A: 185 nM

Q: What about the IC50 (L1210) of the same compound?
A: 324 nM

Q: And the IC50 (GL261)?
A: 1200 nM

Q: And the IC50 (MCF7)?
A: 158 nM

Q: What about the IC50 (A427) of the same compound?
A: 1440 nM

Q: What about the IC50 (Hs695T) of the same compound?
A: 970 nM

Q: What about the IC50 (H1650) of the same compound?
A: 1200 nM

Q: What about the IC50 (NCI-H226) of the same compound?
A: 1690 nM

Q: And the IC50 (Capan-2)?
A: 970 nM

Q: What about the IC50 (OVCAR-8) of the same compound?
A: 113 nM

Q: And the IC50 (A2780)?
A: 219 nM

Q: And the IC50 (SCCOHT-1)?
A: 185 nM

Q: And the IC50 (BIN-67)?
A: 450 nM

Q: What about the IC50 (IGROV-1) of the same compound?
A: 490 nM

Q: What about the IC50 (COV434) of the same compound?
A: 339 nM

Q: And the IC50 (A2780cp)?
A: 378 nM

Q: And the IC50 (SKOV-3)?
A: 509 nM

Q: What about the IC50 (OVCAR-3) of the same compound?
A: 244 nM

Q: And the “AUC % Extrap” value [1]?
A: 1.02%

Q: What about the CI/Fobs [1] of the same compound?
A: 912 mL/min/kg

Q: And the AUC(0-inf) ([1]; mouse, in vivo)?
A: 91.4 ng·h/mL

Q: What about the AUC(0-t) ([1]; mouse, in vivo) of the same compound?
A: 90.4 ng·h/mL

Q: What about the Cmax ([1]; mouse, in vivo) of the same compound?
A: 20.9 ng/mL

Q: What about the Tmax ([1]; mouse, in vivo) of the same compound?
A: 1 h

Q: What about the bioavailability ([1]; mouse, in vivo) of the same compound?
A: 16.2%

Q: What about the half-life ([1]; mouse, in vivo) of the same compound?
A: 3.6 h

Q: And the Vd/F ([1]; mouse, in vivo, read-out: Vz/Fobs)?
A: 284 L/kg
